Experimental data reported in PMC8653295 (Chemistry (Weinheim an Der Bergstrasse, Germany), 2021).
Values joined by “and” are separate entries in the source; they are usually repeats but may differ in a detail not shown here. Equal entries are not always repeated.

Columns and labels:
[1] = molecular target: interaction of the RBD of the SARS‐CoV‐2 S protein with the ACE2 receptor (Severe acute respiratory syndrome coronavirus 2, UniProt P0DTC2); format: binding; conditions: for inhibition of the S/ACE2 interaction: 20 µM
[2] = molecular target: SARS‐CoV‐2 PL^pro (Severe acute respiratory syndrome coronavirus 2, UniProt P0DTD1); assay: biochemical; format: biochemical; conditions: for inhibition of SARS-CoV-2 PLpro: 1 µM
[3] = molecular target: SARS‐CoV PL^pro (Severe acute respiratory syndrome coronavirus, UniProt P0C6X7); assay: biochemical; format: biochemical; conditions: for inhibition of SARS-CoV PLpro: 10 µM

Compound	inhibition of the S/ACE2 interaction [1]	inhibition of SARS-CoV-2 PLpro [2]	inhibition of SARS-CoV PLpro [3]	other results
CC(C)n1cc(-c2ccccc2)[n+](C(C)C)[c]1[Au-][c]1n(C(C)C)c(-c2ccccc2)c[n+]1C(C)C.[I-] [Au‐29]	8%	4%	24%	
CC(=O)OC[C@H]1O[C@@H]([S-])[C@H](OC(C)=O)[C@@H](OC(C)=O)[C@@H]1OC(C)=O.CCP(CC)CC.[Au+] [Au‐1, auranofin, reference compound]	20%	51% and > 50%	58% and > 50%	
((NH2)3C)4[(N3C6H4As)2Mo6O24] [POM‐10]	6%	4%	7%	
CCP(CC)CC.[Au+].[Cl-] [Au‐3, (triethylphosphine)AuCl, reference compound]	24%	55% and > 50%	95% and > 50%	IC50 [2]: 1.1 ± 0.12 µM; IC50 [3]: 1.2 ± 0.44 µM
Cn1[c]([Au-][c]2n(C)c3ccccc3[n+]2C)[n+](C)c2ccccc21.[I-] [Au‐21]	22%	10%	11%	
C1=CCCC=CCC1.CCn1[c-][n+](CC)c(-c2ccc(F)cc2)c1.[Cl-].[Rh+] [Rh‐4]	6%	17%	72%	
Cc1cn(C/C=C/[c-]2cccc2)c(=O)[nH]c1=O.Cc1cn(C/C=C/[c-]2cccc2)c(=O)[nH]c1=O.[Fe+2] [Fe‐12]	28%	-8%	-4%	
C1=CCCC=CCC1.CCn1[c-][n+](CC)c(-c2ccccc2)c1.[Cl-].[Rh+] [Rh‐1]	0%	-4%	67%	
C[CH2][Hg][S]c1ccccc1C(=O)[O-].[Na+] [Hg‐1, thiomersal, reference compound]	7%	9%	-63%	
CCn1cc(-c2ccccc2)[n+](CC)[c]1[Au-][c]1n(CC)cc(-c2ccccc2)[n+]1CC.[I-] [Au‐23]	23%	-10%	25%	
[Cl][Ti]([Cl])([Cl])[Cl] [Ti‐2, titanium(IV) tetrachloride, reference compound]	0%	-3%	-7%	activity against the S/ACE2 interaction (in words) [1]: inactive; activity against SARS‐CoV‐2 PL^pro (in words) [2]: inactive; activity against SARS‐CoV PL^pro (in words) [3]: inactive
Cc1ccc(C(C)C)cc1.[Cl-].[Cl-].[Ru+2].[c-]1n(Cc2ccccc2)cc[n+]1Cc1ccccc1 [Ru‐9]	2%	10%	12%	
CC[n+]1[c-]n(CC2(c3ccc(Cl)cc3Cl)OCC(COc3ccc(N4CCN(C(C)=O)CC4)cc3)O2)cc1.[Au+].[Cl-] (stereo not drawn) [Au‐19]	16%	2%	94% and > 80%	
C1=CCCC=CCC1.Cn1[c-][n+](C)c(-c2ccc(F)cc2)c1.[Br-].[Rh+] [Rh‐11]	14%	48%	91%	
C1=CCCC=CCC1.CCn1[c-][n+](CC)c(-c2ccc(F)cc2)c1.[Br-].[Rh+] [Rh‐5]	5%	19%	71%	
CCn1[c]([Au-][S]C(=S)N2CCC(C(=O)NC3C(O)OC(CO)C(O)C3O)CC2)[n+](CC)c2ccccc21 (mixture of isomers) [Au‐35]	0%	58%	85%	IC50 [2]: 0.41 ± 0.14 µM; IC50 SARS‐CoV‐2 PL^pro [2]: Submicromolar; IC50 SARS‐CoV PL^pro [3]: Submicromolar
Cs3K[(HO2CC6H4CH2P)2Mo5O21] ⋅ 5H2O [POM‐8]	9%	7%	5%	
COc1ccc(C#[C][Au-][c]2n(C)c3ccccc3[n+]2C)cc1 [Au‐6]	16%			

Compound	inhibition of the S/ACE2 interaction [1]	inhibition of SARS-CoV-2 PLpro [2]	inhibition of SARS-CoV PLpro [3]	other results
K7[Ti2PW10O40] ⋅ 6H2O [POM‐3]	68%	15%	63%	
O=C(NC1C(O)OC(CO)C(O)C1O)C1CCN(C(=S)[S][Au][PH](c2ccccc2)(c2ccccc2)c2ccccc2)CC1 (mixture of isomers) [Au‐36]	0%	74%	79%	IC50 [2]: 0.14 ± 0.09 µM; IC50 SARS‐CoV‐2 PL^pro [2]: Submicromolar; IC50 [3]: 0.33 ± 0.16 µM; IC50 SARS‐CoV PL^pro [3]: Submicromolar
C1=CCCC=CCC1.CCn1[c-][n+](CC)c(-c2ccccc2)c1.[Br-].[Rh+] [Rh‐2]	1%	17%	67%	
Cn1cc(-c2ccccc2)n(C)[c]1=[Au][Cl] [Au‐14]	17%	23%	51%	
[Cl][Au-][c]1n(Cc2ccccc2)cc(-c2ccccc2)[n+]1Cc1ccccc1 [Au‐17]	9%	13%	-3%	activity against SARS‐CoV‐2 PL^pro (in words) [2]: inactive; activity against SARS‐CoV PL^pro (in words) [3]: inactive
CC(C)n1[c]([Au-][c]2n(C(C)C)c3ccccc3[n+]2C(C)C)[n+](C(C)C)c2ccccc21.[Br-] [Au‐22]	23%	7%	39%	
C1=CCCC=CCC1.Cn1[c-][n+](C)c(-c2ccccc2)c1.[Br-].[Rh+] [Rh‐9]	17%	50%	94%	IC50 [2]: 2.2 ± 1 µM; IC50 SARS‐CoV‐2 PL^pro [2]: low micromolar range; IC50 [3]: 6.7 ± 2.4 µM; IC50 SARS‐CoV PL^pro [3]: low micromolar range
CCN(CC)C(=S)SSC(=S)N(CC)CC [DS, disulfiram, reference compound]				inhibition at 1 µM ([2]; read-out: inhibition of SARS-CoV-2 PLpro): 73%; inhibition at 10 µM ([3]; read-out: inhibition of SARS-CoV PLpro): 87%
((NH2)3C)4[(BrC6H4As)2Mo6O24] ⋅ 2H2O [POM‐9]	7%	7%	13%	
[Cl][Au].c1ccc(P(c2ccccc2)c2ccccc2)cc1 [Au‐4, (triphenylphosphine)AuCl, reference compound]	19%	78% and > 50%	50% and > 50%	
Cn1cc(-c2ccccc2)[n+](C)[c]1[Au-][c]1n(C)cc(-c2ccccc2)[n+]1C.[I-] [Au‐24]	18%	-17%	12%	
CC(C)n1cc(-c2ccccc2)n(C(C)C)[c]1=[Au][Cl] [Au‐16]	10%	41%	57%	
Cc1cn(CC=C[c-]2cccc2)c(=O)[nH]c1=O.[Ru+2].c1cc[cH-]c1 [Ru‐17]	26%	-17%	3%	
[Au+3].[Cl-].[Cl-].[Cl-].[Cl-].[H+] [Au‐5, chloroauric acid, reference compound]	45%	72% and > 50%	89% and > 50%	
C1=CCCC=CCC1.CCn1[c-][n+](CC)c(-c2ccc(F)cc2)c1.[I-].[Rh+] [Rh‐6]	22%	19%	70%	
C1=CCCC=CCC1.Cn1[c-][n+](C)c(-c2ccccc2)c1.[Cl-].[Rh+] [Rh‐8]	12%	35%	93%	
C1=CCCC=CCC1.CCn1[c-][n+](CC)c(-c2ccccc2)c1.[I-].[Rh+] [Rh‐3]	0%	15%	63%	
